The source of these data is patent publication US11090304B2 (Amgen Inc., priority 2018, dated 2021).

One may read the IC50 as the point on the concentration scale where inhibition reaches its midpoint.

Test [1] has as its system Phosphorylation of ERK1/2 in MIA PaCa-2 cells. As to the kind of experiment: Phospho-ERK1/2 MSD assay in MIA PaCa-2 cells. The format is cell-based. The conditions noted are these: Homo sapiens, MIA PaCa-2, 2 h, read-out: p-ERK IC50 (2 h; MIA PaCa-2), 2 h compound treatment. A digest of the protocol:
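Following a 2 or 4 h incubation with titrated compound, cells receive a 10 min pulse of 10 ng/mL EGF. Phospho-ERK1/2 in RIPA lysates is then quantified by MSD immunoassay, and IC50 values come from a four-parameter logistic model.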

Test [2] has as its target GDP-bound KRAS protein (aa 1-169), containing both G12C and C118A amino acid substitutions (Homo sapiens, UniProt P01116, C118A/G12C). Put plainly: Coupled nucleotide exchange assay (SOS-mediated, AlphaScreen). The conditions noted are these: 5 min compound pre-incubation. The class given is biochemical. Background: In Alpha technology, singlet oxygen from a donor bead excites a nearby acceptor bead.

Sequence of GDP-bound KRAS protein (aa 1-169), containing both G12C and C118A amino acid substitutions (P01116 1-169 isoform P01116-2 G12C/C118A): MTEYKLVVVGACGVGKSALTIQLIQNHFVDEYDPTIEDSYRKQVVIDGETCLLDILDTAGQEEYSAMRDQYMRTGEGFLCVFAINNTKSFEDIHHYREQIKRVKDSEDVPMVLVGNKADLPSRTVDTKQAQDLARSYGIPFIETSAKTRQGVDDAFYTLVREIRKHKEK

With `C=CC(=O)N1CCN(c2nc(=O)n(-c3c(CO)cccc3C(C)C)c3nc(-c4ccccc4F)c(Cl)cc23)[C@@H](C)C1` [Example 55-43, 6-chloro-7-(2-fluorophenyl)-1-(2-(hydroxymethyl)-6-(2-propanyl)phenyl)-4-((2S)-2-methyl-4-(2-propenoyl)-1-piperazinyl)pyrido[2,3-d]pyrimidin-2(1H)-one], in test [1], the IC50 was 0.07 µM. Further, the “Coupled exchange IC50 (5 min)” value in test [2] is 0.073 | nda μM.

As to `C=CC(=O)N1CCN(c2nc(=O)n(-c3ccccc3S(F)(F)(F)(F)F)c3nc(-c4c(O)cccc4F)c(Cl)cc23)[C@@H](C)C1` [Example 56-1, 6-Chloro-7-(2-fluoro-6-hydroxy-phenyl)-4-[(2S)-2-methyl-4-prop-2-enoyl-piperazin-1-yl]-1-[2-(pentafluoro-λ^6-sulfanyl)phenyl]pyrido[2,3-d]pyrimidin-2-one], the IC50 in test [1] worked out at 0.359 µM. For the same compound, the “Coupled exchange IC50 (5 min)” value in test [2] is on record as 0.149 | nda μM.

As for `C=CC(=O)N1CCN(c2nc(=O)n(-c3c(C(C)C)ncnc3C(C)C)c3nc(-c4c(N)cccc4F)c(Cl)cc23)[C@@H](C)C1` [Example 56-2, 7-(2-amino-6-fluorophenyl)-6-chloro-1-(4,6-di(2-propanyl)-5-pyrimidinyl)-4-((2S)-2-methyl-4-(2-propenoyl)-1-piperazinyl)pyrido[2,3-d]pyrimidin-2(1H)-one], the 50% inhibitory concentration (IC50) in test [1] was 0.052 µM. In test [2], the “Coupled exchange IC50 (5 min)” value is recorded as 0.061 | nda μM.

With `C=CC(=O)N1CCN(c2nc(=O)n(-c3c(C)cccc3C3CC3)c3nc(-c4ccccc4F)c(Cl)cc23)[C@@H](C)C1` [Example 56-5, 6-chloro-1-(2-cyclopropyl-6-methylphenyl)-7-(2-fluorophenyl)-4-((2S)-2-methyl-4-(2-propenoyl)-1-piperazinyl)pyrido[2,3-d]pyrimidin-2(1H)-one], the IC50 in test [1] was 0.74 µM. Besides, in test [2], the “Coupled exchange IC50 (5 min)” value was 0.433 | nda μM.

With `C=CC(=O)N1CCN(c2nc(=O)n(-c3ccccc3C(C)C)c3nc(-c4cc(N)ccc4Br)c(Cl)cc23)[C@@H](C)C1` [Example 56-6, 7-(5-amino-2-bromophenyl)-6-chloro-4-((2S)-2-methyl-4-(2-propenoyl)-1-piperazinyl)-1-(2-(2-propanyl)phenyl)pyrido[2,3-d]pyrimidin-2(1H)-one], the 50% inhibitory concentration (IC50) in test [1] was 0.084 µM. For the same compound, the “Coupled exchange IC50 (5 min)” value in test [2] was 0.125 | nda μM.

In the case of `C=CC(=O)N1CCN(c2nc(=O)n(-c3ccccc3C(C)C)c3nc(-c4cc(N)ccc4Cl)c(Cl)cc23)[C@@H](C)C1` [Example 56-7, 7-(5-amino-2-chlorophenyl)-6-chloro-4-((2S)-2-methyl-4-(2-propenoyl)-1-piperazinyl)-1-(2-(2-propanyl)phenyl)pyrido[2,3-d]pyrimidin-2(1H)-one], the half-maximal inhibitory concentration (IC50) in test [1] was 0.069 µM. The “Coupled exchange IC50 (5 min)” value in test [2] is reported as 0.11 | nda μM.

Take `C=CC(=O)N1CCN(c2nc(=O)n(-c3ccccc3C(C)C)c3nc(-c4cc(OC)ccc4F)c(Cl)cc23)[C@@H](C)C1` [Example 56-9, 6-chloro-7-(2-fluoro-5-methoxyphenyl)-4-((2S)-2-methyl-4-(2-propenoyl)-1-piperazinyl)-1-(2-(2-propanyl)phenyl)pyrido[2,3-d]pyrimidin-2(1H)-one]: the half-inhibitory concentration (IC50) in test [1] came to 0.16 µM. The “Coupled exchange IC50 (5 min)” value in test [2] is listed as 0.269 | nda μM.

Consider `C=CC(=O)N1CCN(c2nc(=O)n(-c3ccccc3C(C)C)c3nc(-c4ccccc4OC(F)F)c(Cl)cc23)[C@@H](C)C1` [Example 56-10, 6-chloro-7-(2-(difluoromethoxy)phenyl)-4-((2S)-2-methyl-4-(2-propenoyl)-1-piperazinyl)-1-(2-(2-propanyl)phenyl)pyrido[2,3-d]pyrimidin-2(1H)-one], for which the IC50 in test [1] is 0.26 µM. For the same compound, the “Coupled exchange IC50 (5 min)” value in test [2] is 0.332 | nda μM.

Regarding `C=CC(=O)N1CCN(c2nc(=O)n(-c3c(C)ccnc3CC)c3nc(-c4c(O)cccc4F)c(F)cc23)[C@@H](C)C1` [Example 57-1, 1-(2-Ethyl-4-methyl-3-pyridinyl)-6-fluoro-7-(2-fluoro-6-hydroxyphenyl)-4-((2S)-2-methyl-4-(2-propenoyl)-1-piperazinyl)pyrido[2,3-d]pyrimidin-2(1H)-one], the IC50 in test [1] is 0.171 µM. The “Coupled exchange IC50 (5 min)” value in test [2] was 0.835 | nda μM.

Take `C=CC(=O)N1CCN(c2nc(=O)n(-c3nccnc3C(C)C)c3nc(-c4ccccc4F)c(F)cc23)[C@@H](C)C1` [Example 57-2, 6-fluoro-7-(2-fluorophenyl)-4-((2S)-2-methyl-4-(2-propenoyl)-1-piperazinyl)-1-(3-(2-propanyl)-2-pyrazinyl)pyrido[2,3-d]pyrimidin-2(1H)-one]: in test [1], the IC50 stood at 0.3 µM. In test [2], the “Coupled exchange IC50 (5 min)” value was 0.74 | nda μM.

As for `C=CC(=O)N1CCN(c2nc(=O)n(-c3nccnc3C(C)C)c3nc(-c4c(O)cccc4F)c(F)cc23)[C@@H](C)C1` [Example 57-3, 6-fluoro-7-(2-fluoro-6-hydroxyphenyl)-4-((2S)-2-methyl-4-(2-propenoyl)-piperazinyl)-1-(3-(2-propanyl)-2-pyrazinyl)pyrido[2,3-d]pyrimidin-2(1H)-one], the 50% inhibitory concentration (IC50) in test [1] turned out to be 0.241 µM. Besides, the “Coupled exchange IC50 (5 min)” value in test [2] is 0.664 | nda μM.

For `C=CC(=O)N1CCN(c2nc(=O)n(-c3c(C(C)C)ncnc3C(C)C)c3nc(-c4c(O)cccc4F)c(F)cc23)[C@@H](C)C1` [Example 57-4, 1-(4,6-di(2-propanyl)-5-pyrimidinyl)-6-fluoro-7-(2-fluoro-6-hydroxyphenyl)-4-((2S)-2-methyl-4-(2-propenoyl)-1-piperazinyl)pyrido[2,3-d]pyrimidin-2(1H)-one], the IC50 in test [1] was determined as 0.061 µM. Also, the “Coupled exchange IC50 (5 min)” value in test [2] is 0.1 | nda μM.

For the compound `C=CC(=O)N1CCN(c2nc(=O)n(-c3c(C(C)C)ncnc3C(C)C)c3nc(-c4ccccc4F)c(F)cc23)[C@@H](C)C1` [Example 57-5, 1-(4,6-di(2-propanyl)-5-pyrimidinyl)-6-fluoro-7-(2-fluorophenyl)-4-((2S)-2-methyl-4-(2-propenoyl)-1-piperazinyl)pyrido[2,3-d]pyrimidin-2(1H)-one], in test [1], the IC50 was found to be 0.107 µM. Also, in test [2], the “Coupled exchange IC50 (5 min)” value is recorded as 0.221 | nda μM.

As to `C=CC(=O)N1CCN(c2nc(=O)n(-c3ncccc3C(C)C)c3nc(-c4ccccc4F)c(F)cc23)[C@@H](C)C1` [Example 57-9, 6-fluoro-7-(2-fluorophenyl)-4-((2S)-2-methyl-4-(2-propenoyl)-1-piperazinyl)-1-(3-(2-propanyl)-2-pyridinyl)pyrido[2.3-d]pyrimidin-2(1H)-one], in test [1], the IC50 was determined as 0.239 µM. Besides, the “Coupled exchange IC50 (5 min)” value in test [2] is listed as 0.752 | nda μM.

Turning to `C=CC(=O)N1CCN(c2nc(=O)n(-c3ncccc3C(C)C)c3nc(-c4c(O)cccc4F)c(F)cc23)[C@@H](C)C1` [Example 57-10, 6-fluoro-7-(2-fluoro-6-hydroxyphenyl)-4-((2S)-2-methyl-4-(2-propenoyl)-1-piperazinyl)-1-(3-(2-propanyl)-2-pyridinyl)pyrido[2,3-d]pyrimidin-2(1H)-one], in test [1], the half-inhibitory concentration (IC50) is 0.105 µM. The “Coupled exchange IC50 (5 min)” value in test [2] was 0.452 | nda μM.

Regarding `C=CC(=O)N1CCN(c2nc(=O)n(-c3scnc3C(C)C)c3nc(-c4c(O)cccc4F)c(F)cc23)[C@@H](C)C1` [Example 57-11, 6-fluoro-7-(2-fluoro-6-hydroxyphenyl)-4-((2S)-2-methyl-4-(2-propenoyl)-1-piperazinyl)-1-(4-(2-propanyl)-1,3-thiazol-5-yl)pyrido[2,3-d]pyrimidin-2(1H)-one], in test [1], the half-inhibitory concentration (IC50) stood at 0.265 µM. In test [2], the “Coupled exchange IC50 (5 min)” value is 0.24 | nda μM.

With `C=CC(=O)N1CCN(c2nc(=O)n(-c3scnc3C(C)C)c3nc(-c4ccccc4F)c(F)cc23)[C@@H](C)C1` [Example 57-12, 6-fluoro-7-(2-fluorophenyl)-4-((2S)-2-methyl-4-(2-propenoyl)-1-piperazinyl)-1-(4-(2-propanyl)-1,3-thiazol-5-yl)pyrido[2,3-d]pyrimidin-2(1H)-one], in test [1], the half-inhibitory concentration (IC50) turned out to be 0.539 µM. In test [2], the “Coupled exchange IC50 (5 min)” value was 0.472 | nda μM.

As to `C=CC(=O)N1CCN(c2nc(=O)n(-c3c(C)cccc3C(C)(C)C)c3nc(-c4c(O)cccc4F)c(F)cc23)[C@@H](C)C1` [Example 57-17, 6-fluoro-7-(2-fluoro-6-hydroxyphenyl)-1-(2-methyl-6-(2-methyl-2-propanyl)phenyl)-4-((2S)-2-methyl-4-(2-propenoyl)-1-piperazinyl)pyrido[2,3-d]pyrimidin-2(1H)-one], the IC50 in test [1] came out at 1.44 µM. For the same compound, in test [2], the “Coupled exchange IC50 (5 min)” value was 0.574 | nda μM.

Take `C=CC(=O)N1CCN(c2nc(=O)n(-c3ccccc3C(C)(C)C)c3nc(-c4c(O)cccc4F)c(F)cc23)[C@@H](C)C1` [Example 58-1, 6-Fluoro-7-(2-fluoro-6-hydroxyphenyl)-1-(2-(2-methyl-2-propanyl)phenyl)-4-((2S)-2-methyl-4-(2-propenoyl)-1-piperazinyl)pyrido[2,3-d]pyrimidin-2(1H)-one]: the IC50 in test [1] was determined as 0.696 µM. Also, the “Coupled exchange IC50 (5 min)” value in test [2] is recorded as 0.661 | nda μM.

On to `C=CC(=O)N1CCN(c2nc(=O)n(-c3c(C(F)(F)F)ccnc3C(C)C)c3nc(-c4c(O)cccc4F)c(F)cc23)[C@@H](C)C1` [Example 58-3, 6-fluoro-7-(2-fluoro-6-hydroxyphenyl)-4-((2S)-2-methyl-4-(2-propenoyl)-1-piperazinyl)-1-(2-(2-propanyl)-4-(trifluoromethyl)-3-pyridinyl)pyrido[2,3-d]pyrimidin-2(1H)-one], for which the IC50 in test [1] was 0.181 µM. In addition, the “Coupled exchange IC50 (5 min)” value in test [2] was 0.261 | nda μM.

With `C=CC(=O)N1CCN(c2nc(=O)n(-c3c(C)ccnc3C(C)C)c3nc(-c4ccccc4F)c(F)cc23)[C@@H](C)C1` [Example 58-4, 6-fluoro-7-(2-fluorophenyl)-1-(4-methyl-2-(2-propanyl)-3-pyridinyl)-4-((2S)-2-methyl-4-(2-propenoyl)-1-piperazinyl)pyrido[2,3-d]pyrimidin-2(1H)-one], in test [1], the 50% inhibitory concentration (IC50) stood at 0.183 µM. Moreover, in test [2], the “Coupled exchange IC50 (5 min)” value is listed as 0.395 | nda μM.
